Assay results: publication PMC8592027, “Structure-Guided Design of D-Galactal Derivatives with High Affinity and Selectivity for the Galectin-8 N-Terminal Domain” (ACS Medicinal Chemistry Letters, 2021)
“Also recorded” adds a separate entry of the source.

Key:
galectin-2 = biological target: T1, galectin-2 (Homo sapiens, UniProt P05162); assay: Competitive fluorescence polarization assay, galectin-2; assay type: binding; details: mean ± SEM of n = 4–8
T1 sequence (P05162 1-132): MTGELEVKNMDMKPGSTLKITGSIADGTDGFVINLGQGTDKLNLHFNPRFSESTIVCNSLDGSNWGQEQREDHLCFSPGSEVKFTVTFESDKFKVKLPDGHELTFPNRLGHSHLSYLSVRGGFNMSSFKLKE

[1] = biological target: T2, galectin-4N (N-terminal domain) (Homo sapiens, UniProt P56470); assay: Competitive fluorescence polarization assay, galectin-4N; assay type: binding; details: mean ± SEM of n = 4–8
T2 construct: galectins (N = N-terminal domain, C = C-terminal domain); made in house
T2 sequence (P56470 19-150 limits assumed): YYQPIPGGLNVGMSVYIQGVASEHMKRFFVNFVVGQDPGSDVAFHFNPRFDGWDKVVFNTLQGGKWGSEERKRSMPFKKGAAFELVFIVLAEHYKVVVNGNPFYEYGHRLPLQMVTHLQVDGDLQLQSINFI
Description: (§1) 1. Competitive fluorescence polarization experiments:
(§2) Human galectins -1, -3, -4N, -4C, -7, -8N, -9N, and -9C were expressed and purified as previously described 30,41. Fluorescence polarisation experiments were performed using the PHERAstar FS plat e reader (software version 2.10 R3), and the fluorescence anisotropy of fluorescein tagged probes was measured by excitation at 485 nm and emission at 520 nm. The specific conditions for galectins -1, -3, -4N, -4C, -7, -8N, -9N, and -9C were kept as report ed30,41,42. The synthesised compounds were dissolved in pure DMSO at 20 mM concentration and diluted in PBS to 3-6 different concentrations, and each concentration was tested in duplicate. The highest inhibitor concentrations tested were 1.5 mM. The

[2] = biological target: T3, galectin-8N (galectin-8 N-terminal domain) (Homo sapiens, UniProt O00214); assay: Competitive fluorescence polarization assay, galectin-8N; assay type: binding
T3 construct: selective ligand for the galectin-8 N-terminal domain (galectin-8N); made in house
T3 sequence (O00214 19-152 limits assumed): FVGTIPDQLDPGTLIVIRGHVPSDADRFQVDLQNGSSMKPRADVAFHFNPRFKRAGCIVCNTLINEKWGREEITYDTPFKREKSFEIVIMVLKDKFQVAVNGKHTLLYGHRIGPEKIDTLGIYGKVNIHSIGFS
Description: All synthesized D-galactal derivatives had higher binding affinities for galectin-8N than D-galactal 3.
as §1, §2

K562 cancer cell line = assay: MTS metabolic activity (cytotoxicity) assay, K562; assay type: cell-based; details: concentrations 1 to 100 μM, 24 hours
Description: (§3) We have investigated the cytotoxicity of the compounds 1, 6a, and 6c via a (3-(4,5-dimethylthiazol-2-yl)-5-(3-carboxymethoxyphenyl)-2-(4-sulfophenyl)-2H-tetrazolium) (MTS) assay in K562 and MDA-MB-231 cancer cell lines to establish the direct antitumor activity of compounds, as well as human peripheral blood mononuclear cells (PBMCs), to evaluate their safety.
(§4) Metabolic activity assay:
(§5) The metabolic activities of the cell lines were determined using the CellTiter 96 Aqueous One Solution cell proliferation assay (MTS Reagents, Promega, Madison, WI, USA), according to the manufacturer instructions. Briefly, the cells were treated with the selected compounds in 0.1% dimethyl sulfoxide (DMSO; vehicle), 0.1% DMSO (control vehicle), or medium (control) and seeded at a cell density of 5,500 cells/well (MDA-MB-231 cells) or 4 x 10^4 cells/well (K562 cells), 7000 cells/well (HepG2 cells) or 1 x 10^5 cells/well (human PBMCs) in duplicates (MDA-MB-231, K562, and […]) or triplicates for HepG2 cells (100 µL), in sterile 96-well plates. For the MDA-MB-231 and HepG2, the cells were left to adhere overnight before adding the compounds. The plates were then incubated for 24 hours (48 hours for HepG2), after which 15 µL of MTS reagent was added to each well. After 30-90 minute of incubation, the absorbance was measured at 492 nm using a microplate reader (Synergy HTX Multi-Mode; BioTek Instruments, Inc., VT, USA). […]
(§6) Bead Array Human inflammatory cytokine Kit (content: IL-1, IL-6, IL-8, IL-10, IL-12p). The flow cytometric analyses were performed on an Attune NxT flow cytometer (Thermo Fisher Scientific, […]
(§7) Data are represented as means ± standard deviation (SD) from three representative independent experiments.
(§8) All experiments were performed at least twice, with average values expressed as means ± SD. All data were analyzed with the statistical software GraphPad Prism 8.0 (GraphPad Software, Inc., CA, USA). by one-way ANOVA followed with Dunnett’s multiple compar ison test. Differences were considered non-significant for p > 0.05, and significant (*) for p < 0.05. […]

[3] = tested on: MDA-MB-231 cancer cell line; assay: MTS metabolic activity (cytotoxicity) assay, MDA-MB-231; assay type: cell-based, human; details: concentrations 1 to 100 μM, 24 hours
Description: as §3, §4, §5, §6, §7, §8

[4] = tested on: human peripheral blood mononuclear cells (PBMCs); assay: MTS metabolic activity (cytotoxicity) assay, PBMCs; assay type: cell-based; details: concentrations up to 100 μM, 24 hours
Description: as §3, §4, §5, §6, §7, §8

- Kd (galectin-2): 1.4 ± 0.024 mM
- Kd [1]: 1.4 ± 0.03 mM
- Kd ([2]; mean ± SEM of n = 4–8): 0.048 ± 0.004 mM
- selectivity for galectin-8N over galectin-1 ([2]; ratio of Kd values): 27 fold
- selectivity for galectin-8N over galectin-3 ([2]; ratio of Kd values): 15 fold
Structure (SMILES): Cn1c(CO[C@@H]2C=CO[C@H](CO)[C@@H]2O)nc2ccc(C(=O)O)cc21 [6a]
- cell viability (MTS), K562 (K562 cancer cell line): None of the compounds decreased the viability
- cell viability (MTS), MDA-MB-231 [3]: None of the compounds decreased the viability; also recorded: no effect on the viability
- direct cytotoxicity (MTS), PBMCs [4]: lack of direct cytotoxicity
